Experimental data reported in patent publication US8802132B2, “Anti-microbial tissue paper and process to manufacture same” (Cascades Canada ULC, priority 2010, dated 2014).

Key:
[1] = Benzalkonium chloride release from wetted paper, lab blender extraction method; format: physicochemical; conditions: hand towel made of recycled pulp; cationizing agent about 1.2 wt % (12 kg/T); benzalkonium chloride about 1 wt %
Description: As mentioned above, the cationizing agent at least partially neutralizes the paper anionic charges. Thereby, a portion of the antimicrobial agent, which can also be cationic, is not retained on the tissue paper when the latter is wetted and is thereby released. In an embodiment, the tissue paper has a release rate between approximately 0.01 wt % and 0.6 wt % when wetted. In an alternative embodiment, the tissue paper has a release rate between approximately 0.05 wt % and 0.2 wt % when wetted. For example, a tissue paper containing about 0.3 wt % of antimicrobial agent can release about 0.1 wt % of antimicrobial agent when wetted. The antimicrobial agent released from the tissue paper is measured relatively to the original, substantially dry tissue paper weight including the cationizing and antimicrobial agents. The antimicrobial agent released from the tissue paper is measured in a solution, such as water, following extraction. For the release rates mentioned in the application, the extraction is carried out by the lab blender method described below. The antimicrobial agent in the solution is measured by a method such as and without being limitative biphasic titration or high performance liquid chromatography (HPLC).
The amount of antimicrobial agent released will be highly dependent on the method used to retrieve it from the paper. […]

[2] = Charge density of cationizing agents, antimicrobial agent and fibres; format: physicochemical

Molecule	Benzalkonium chloride released [1]	Charge density ([2]; cationic agent of Table 3) [eq/kg]	Charge density ([2]; Table 4, recycled deinked pulp (DIP) hand towel)	Charge density ([2]; Table 5, virgin bleached Kraft hand towel)
CCCCCCCCCCCCCCCC[N+](C)(C)C.[Cl-] [Cetyltrimethylammonium chloride, cetyltrimethylammonium chloride]	0.23 % (w/w)	3.76		
benzalkonium chloride [Antimicrobial agent]			+2.9 equiv/kg	+2.9 equiv/kg
